For 60 molecules, IC50 results are on record in US12581252B2, “Substituted pyrrolo[3,4-b]pyridines as PI3K-α inhibitors” (Relay Therapeutics, Inc., priority 2020, dated 2026).

By IC50 is commonly meant the concentration needed to halve the response being measured. Read a high IC50 as lower potency.

Each structure is given as a SMILES string. Bounds are passed on as bounds.

The target of the experiment is H1047R PIK3CA enzyme (Homo sapiens, UniProt P42336, H1047R). Put plainly: ADP-Glo Biochemical PIK3CA Kinase Assay. For orientation: In ADP-Glo the light output rises with the ADP produced.
Sequence of H1047R PIK3CA enzyme (P42336 whole entry H1047R): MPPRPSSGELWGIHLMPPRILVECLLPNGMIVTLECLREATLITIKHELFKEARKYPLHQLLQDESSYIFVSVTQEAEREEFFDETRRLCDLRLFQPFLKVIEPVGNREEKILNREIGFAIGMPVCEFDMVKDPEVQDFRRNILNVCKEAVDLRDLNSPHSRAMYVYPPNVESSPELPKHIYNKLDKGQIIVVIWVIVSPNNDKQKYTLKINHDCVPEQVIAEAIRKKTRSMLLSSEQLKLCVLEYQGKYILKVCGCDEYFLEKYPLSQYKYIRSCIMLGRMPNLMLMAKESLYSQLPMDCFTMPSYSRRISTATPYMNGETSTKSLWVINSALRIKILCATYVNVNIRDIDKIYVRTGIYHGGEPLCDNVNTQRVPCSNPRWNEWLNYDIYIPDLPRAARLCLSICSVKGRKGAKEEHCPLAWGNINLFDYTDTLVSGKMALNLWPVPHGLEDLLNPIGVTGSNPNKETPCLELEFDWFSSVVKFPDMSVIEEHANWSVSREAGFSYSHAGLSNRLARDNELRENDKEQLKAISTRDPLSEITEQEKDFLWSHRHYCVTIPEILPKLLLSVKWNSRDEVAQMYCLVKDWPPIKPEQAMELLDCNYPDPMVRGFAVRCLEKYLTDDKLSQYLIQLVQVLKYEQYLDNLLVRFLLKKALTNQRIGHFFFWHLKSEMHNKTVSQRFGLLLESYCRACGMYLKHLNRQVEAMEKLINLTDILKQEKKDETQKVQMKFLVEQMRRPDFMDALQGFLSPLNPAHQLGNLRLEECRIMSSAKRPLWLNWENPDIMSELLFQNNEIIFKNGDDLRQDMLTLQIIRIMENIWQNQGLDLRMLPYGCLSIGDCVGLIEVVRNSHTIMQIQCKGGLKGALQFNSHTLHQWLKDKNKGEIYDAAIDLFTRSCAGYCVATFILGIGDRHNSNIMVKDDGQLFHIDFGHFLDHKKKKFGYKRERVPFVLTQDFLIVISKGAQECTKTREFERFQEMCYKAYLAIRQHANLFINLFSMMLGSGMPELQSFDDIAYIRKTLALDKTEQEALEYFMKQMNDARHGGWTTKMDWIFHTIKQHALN
Sequence of H1047R PIK3CA enzyme (P27986 whole entry partner): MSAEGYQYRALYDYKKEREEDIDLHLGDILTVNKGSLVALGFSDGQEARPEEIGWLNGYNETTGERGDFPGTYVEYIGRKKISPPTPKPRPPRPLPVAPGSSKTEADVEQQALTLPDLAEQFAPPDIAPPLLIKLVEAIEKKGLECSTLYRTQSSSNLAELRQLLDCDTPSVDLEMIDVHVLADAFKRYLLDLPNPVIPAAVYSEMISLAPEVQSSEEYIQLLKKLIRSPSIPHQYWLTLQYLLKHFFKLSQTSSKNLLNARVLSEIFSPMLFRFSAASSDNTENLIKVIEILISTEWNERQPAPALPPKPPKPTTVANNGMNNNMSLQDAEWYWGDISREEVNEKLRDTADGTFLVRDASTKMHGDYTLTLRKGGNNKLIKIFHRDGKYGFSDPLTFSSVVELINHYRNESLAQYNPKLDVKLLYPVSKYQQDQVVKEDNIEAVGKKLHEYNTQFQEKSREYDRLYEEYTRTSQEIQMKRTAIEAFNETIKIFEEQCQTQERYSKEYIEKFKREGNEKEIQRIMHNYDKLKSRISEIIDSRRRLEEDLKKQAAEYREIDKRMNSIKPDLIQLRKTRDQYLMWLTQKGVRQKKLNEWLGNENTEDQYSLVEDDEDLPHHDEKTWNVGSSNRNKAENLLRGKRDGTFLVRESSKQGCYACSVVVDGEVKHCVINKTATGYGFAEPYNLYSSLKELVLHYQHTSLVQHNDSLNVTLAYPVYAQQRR
Turning to `Cc1ncc(C#N)c(-c2cc(NC(=O)c3cc(F)cc(C(F)(F)F)c3)c3c(c2)C(=O)NC3c2cc(F)ccc2Cl)n1` (stereo not drawn) [Compound I-1369], the half-inhibitory concentration (IC50) was no more than 100 nM.

`Cn1ccc(Nc2cc(NC(=O)c3cc(F)cc(C(F)(F)F)c3)c3c(c2)C(=O)N[C@@H]3c2cc(F)ccc2Cl)n1` [Compound I-1072]: the concentration for half-maximal inhibition (IC50) is 500 to 1000 nM.

Regarding `O=C1NC(c2cc(F)ccc2Cl)c2c(Nc3noc4ccccc34)cc(Br)cc21` (stereo not drawn) [Compound I-1058], the IC50 was 10000 to 100000 nM.

On to `O=C(Nc1cc(Cl)cc2c1C(c1cc(F)ccc1Cl)NC2=O)c1cc(F)cc(C(F)(F)F)c1` (stereo not drawn) [Compound I-688], for which the half-maximal inhibitory concentration (IC50) was no more than 100 nM.

As to `O=C1NC(c2cc(F)ccc2Cl)c2c(NC(=O)N3CC(O)c4cc(Cl)ccc43)cccc21` (mixture of isomers) [Compound I-2376], the concentration for half-maximal inhibition (IC50) was 1000 to 10000 nM.

Take `O=C1N[C@H](c2cc(F)ccc2Cl)c2c(NC(=O)N3C[C@](O)(C(F)(F)F)c4cc(F)ccc43)cc(-n3ncccc3=O)cc21` (single isomer, unassigned) [Compound I-2535]: the IC50 fell in the range of 1000 to 10000 nM.

Consider `O=C(Nc1cccc2c1C(c1ccccc1Br)NC2=O)c1cc(F)cc(C(F)(F)F)c1` (stereo not drawn) [Compound I-325], for which the IC50 was 100 to 500 nM.

The molecule `N#CC1CC(c2cc(NC(=O)c3cc(F)cc(C(F)(F)F)c3)c3c(c2)C(=O)NC3c2cc(F)ccc2Cl)C1` (stereo not drawn) [Compound I-1175] showed an IC50 of no more than 100 nM.

`N#Cc1ccccc1C(=O)Nc1cc(Br)cc2c1C(c1cc(F)ccc1Cl)NC2=O` (stereo not drawn) [Compound I-639]: the concentration for half-maximal inhibition (IC50) fell in the range of 10000 to 100000 nM.

In turn, `O=C1NC(c2cccc(F)c2F)c2c(NC(=O)c3coc4c(F)cc(F)cc34)ccnc21` (stereo not drawn) [Compound I-210] yielded an IC50 of 1000 to 10000 nM.

In the case of `Cn1nc(C(F)F)cc1-c1cc(NC(=O)c2cc(F)cc(C(F)(F)F)c2)c2c(c1)C(=O)N[C@@H]2c1cc(F)ccc1Cl` [Compound I-1879], the IC50 was in the range of 1000 to 10000 nM.

`N#CC1(COc2cc(NC(=O)N3C[C@H](O)c4cc(F)ccc43)c3c(c2)C(=O)N[C@@H]3c2cc(F)ccc2Cl)CC1` (single isomer, unassigned) [Compound I-2554] returned an IC50 of 100 to 500 nM.

With `Cc1cc2ncnn2cc1-c1cc(NC(=O)c2cc(F)cc(C(F)(F)F)c2)c2c(c1)C(=O)N[C@@H]2c1cc(F)ccc1Cl` [Compound I-1873], the concentration for half-maximal inhibition (IC50) lay in the range of 1000 to 10000 nM.

For `Cn1cc(Nc2cc(NC(=O)c3cc(F)cc(C(F)(F)F)c3)c3c(c2)C(=O)N[C@@H]3c2cc(F)ccc2Cl)cn1` (single isomer, unassigned) [Compound I-998], the IC50 is 500 to 1000 nM.

`O=C(Nc1cc(Cc2ccc3c(c2)CNC3=O)cc2c1C(c1cc(F)ccc1Cl)NC2=O)c1cc(F)cc(C(F)(F)F)c1` (stereo not drawn) [Compound I-1496] showed an IC50 of no more than 100 nM.

For `O=C1NC(c2cc(F)ccc2Cl)c2c(Nc3nccc4ccsc34)cc(Br)cc21` (stereo not drawn) [Compound I-1461], the IC50 was 10000 to 100000 nM.

With `O=C1NC(c2cc(F)ccc2Cl)c2c1cc(-c1ccc3ncnn3c1)cc2N1CCn2ncnc2C1` (stereo not drawn) [Compound I-2018], the concentration for half-maximal inhibition (IC50) lay in the range of 10000 to 100000 nM.

Molecule `CCCCC(C)(O)c1cc(NC(=O)c2cc(F)cc(C(F)(F)F)c2)c2c(c1)C(=O)NC2c1cc(F)ccc1Cl` (stereo not drawn) [Compound I-1186] registered an IC50 of no more than 100 nM.

In turn, `Cc1cnccc1-c1cc(NC(=O)c2cc(F)cc(C(F)(F)F)c2)c2c(c1)C(=O)NC2c1cc(F)ccc1Cl` (stereo not drawn) [Compound I-890] gave a 50% inhibitory concentration (IC50) of no more than 100 nM.

As for `Cc1ccccc1C1NC(=O)c2cccc(NC(=O)c3nnc4ccccn34)c21` (stereo not drawn) [Compound I-328, N-(1-oxo-3-(o-tolyl)isoindolin-4-yl)-[1,2,4]triazolo[4,3-a]pyridine-3-carboxamide], the IC50 lay in the range of 10000 to 100000 nM.

Molecule `Cc1cc(F)cc(C(=O)Nc2cc(Br)cc3c2C(c2cc(F)ccc2Cl)NC3=O)c1` (stereo not drawn) [Compound I-951] showed an IC50 of 1000 to 10000 nM.

Molecule `COc1cnccc1-c1cc(NC(=O)c2cc(F)cc(Cl)c2)c2c(n1)C(=O)NC2c1cc(F)ccc1Cl` (stereo not drawn) [Compound I-505] yielded a 50% inhibitory concentration (IC50) of 100 to 500 nM.

Consider `O=C(Nc1cc(-c2ccn3ncnc3c2)cc2c1C(c1cc(F)ccc1O)NC2=O)c1cc(F)cc(C(F)(F)F)c1` (stereo not drawn) [Compound I-1655], for which the IC50 was in the range of 1000 to 10000 nM.

In turn, `O=C(Nc1cc(-c2cccnc2)cc2c1[C@H](c1cc(F)ccc1Cl)NC2=O)c1cc(F)cc(C(F)(F)F)c1` (stereo in doubt) [Compound I-1008] showed a half-inhibitory concentration (IC50) of 1000 to 10000 nM.

With `O=C1NC(c2cc(F)ccc2Cl)c2c1cccc2-c1nc2c(C(F)(F)F)cc(F)cc2[nH]1` (stereo not drawn) [Compound I-842], the half-inhibitory concentration (IC50) lay in the range of 100 to 500 nM.

As for `Cc1cc(=O)[nH]cc1C(=O)Nc1cc(Br)cc2c1C(c1cc(F)ccc1Cl)NC2=O` (stereo not drawn) [Compound I-1240], the IC50 was in the range of 10000 to 100000 nM.

As for `O=C(Nc1cc(-c2ccn3cncc3c2)cc2c1C(c1cc(F)ccc1Cl)NC2=O)c1cc(F)cc(C(F)(F)F)c1` (stereo not drawn) [Compound I-1503], the IC50 is no more than 100 nM.

On to `CN(C(=O)Nc1cccc2c1C(c1cc(F)ccc1Cl)NC2=O)c1ccc(F)cc1` (stereo not drawn) [Compound I-2435], for which the half-inhibitory concentration (IC50) is 10000 to 100000 nM.

Turning to `O=C1NC(c2cc(F)ccc2Cl)c2c(NC(=O)C34CC5CC(C3)C(F)(F)C(C5)C4)cc(Br)cc21` (stereo not drawn) [Compound I-1203], the IC50 fell in the range of 100 to 500 nM.

In the case of `Cc1ncc(-c2cc(NC(=O)c3cc(F)cc(Cl)c3)c3c(n2)C(=O)NC3c2cc(F)ccc2Cl)cn1` (stereo not drawn) [Compound I-460], the IC50 was 100 to 500 nM.

`CC(=O)N1CC(c2cc(NC(=O)c3cc(F)cc(C(F)(F)F)c3)c3c(c2)C(=O)NC3c2cc(F)ccc2Cl)C1` (stereo not drawn) [Compound I-655] registered an IC50 of no more than 100 nM.

Molecule `CC[C@]1(O)CN(C(=O)Nc2cccc3c2[C@H](c2cc(F)ccc2Cl)NC3=O)c2ccc(F)cc21` (single isomer, unassigned) [Compound I-2462] registered a half-inhibitory concentration (IC50) of 1000 to 10000 nM.

`O=C(Nc1cc(NC(=O)c2cc(F)cc(C(F)(F)F)c2)c2c(c1)C(=O)N[C@@H]2c1cc(F)ccc1Cl)c1cccnc1` (racemic) [Compound I-1478] displayed a concentration for half-maximal inhibition (IC50) of 100 to 500 nM.

Consider `O=C(Nc1cc(NCC2(O)CC2)cc2c1C(c1cc(F)ccc1Cl)NC2=O)c1cc(F)cc(C(F)(F)F)c1` (stereo not drawn) [Compound I-1181], for which the half-maximal inhibitory concentration (IC50) is no more than 100 nM.

Regarding `O=C1N[C@H](c2cc(F)ccc2Cl)c2c(NC(=O)N3C[C@H](O)c4c(F)cccc43)cccc21` (single isomer, unassigned) [Compound I-2143], the IC50 lay within 500 to 1000 nM.

In turn, `O=C(Nc1cc(Br)cc2c1C(c1cc(F)ccc1Cl)NC2=O)c1ccc(Cl)cc1` (stereo not drawn) [Compound I-527] showed an IC50 of 1000 to 10000 nM.

Molecule `CCc1cc(C(=O)Nc2cc(Br)cc3c2C(c2ccccc2C)NC3=O)ccc1F` (stereo not drawn) [Compound I-640] displayed a 50% inhibitory concentration (IC50) of 1000 to 10000 nM.

For the molecule `CN1CCN(c2cc(-c3ccc4ncnn4c3)cc3c2C(c2cc(F)ccc2Cl)NC3=O)CC1` (stereo not drawn) [Compound I-1952], the IC50 lay in the range of 10000 to 100000 nM.

Take `O=C1NC(c2cc(F)ccc2Cl)c2c(NC(=O)N3CC4(CC4)c4ccccc43)cc(Br)cc21` (stereo not drawn) [Compound I-1462]: the half-inhibitory concentration (IC50) lay within 100 to 500 nM.

In turn, `O=C(Nc1cc(C#Cc2ccccn2)cc2c1C(c1cc(F)ccc1Cl)NC2=O)c1cc(F)cc(C(F)(F)F)c1` (stereo not drawn) [Compound I-1185] yielded an IC50 of no more than 100 nM.

In turn, `CS(=O)(=O)CC(O)c1cc(NC(=O)c2cc(F)cc(Cl)c2)c2c(c1)C(=O)NC2c1cc(F)ccc1Cl` (stereo not drawn) [Compound I-297] returned a 50% inhibitory concentration (IC50) of 100 to 500 nM.

`O=C(Nc1cc(NC2CCC2(F)F)nc2c1C(c1cc(F)ccc1Cl)NC2=O)c1cc(F)cc(C(F)(F)F)c1` (stereo not drawn) [Compound I-532] yielded a half-maximal inhibitory concentration (IC50) of no more than 100 nM.

`O=C(Nc1cc(OC2CCOCC2)cc2c1C(c1cc(F)ccc1Cl)NC2=O)c1cc(F)cc(C(F)(F)F)c1` (stereo not drawn) [Compound I-1135] yielded an IC50 of no more than 100 nM.

`Cc1ccccc1C1NC(=O)c2cccc(NC(=O)c3nsc4ccc(-c5ccccc5)cc34)c21` (stereo not drawn) [Compound I-378] yielded a concentration for half-maximal inhibition (IC50) of 1000 to 10000 nM.

`O=C1NC(c2cc(F)ccc2Cl)c2c(NC(=O)[C@H]3C[C@@H](O)c4ccccc43)cc(Br)cc21` (mixture of isomers) [Compound I-1942] came in with an IC50 of 10000 to 100000 nM.

In turn, `Cc1ccccc1[C@H]1NC(=O)c2cccc(NC(=O)c3coc4c(F)cc(F)cc34)c21` [Compound I-97] registered an IC50 of 10000 to 100000 nM.

In turn, `O=C(O)Cc1ccncc1-c1cc(NC(=O)c2cc(F)cc(C(F)(F)F)c2)c2c(c1)C(=O)NC2c1cc(F)ccc1Cl` (stereo not drawn) [Compound I-1220] returned a half-inhibitory concentration (IC50) of no more than 100 nM.

`CN1CC(c2cc(NC(=O)c3cc(F)cc(C(F)(F)F)c3)c3c(c2)C(=O)NC3c2cc(F)ccc2Cl)CC1=O` (racemic) [Compound I-1687] returned an IC50 of no more than 100 nM.

Turning to `O=C1NC(c2cc(F)ccc2Cl)c2c(NC(=O)C3CCOc4ccccc43)cc(Br)cc21` (stereo not drawn) [Compound I-605], the concentration for half-maximal inhibition (IC50) lay within 10000 to 100000 nM.

As for `CC(C)(C#N)n1cc(-c2cc(NC(=O)c3cc(F)cc(C(F)(F)F)c3)c3c(c2)C(=O)NC3c2cc(F)ccc2Cl)cn1` (stereo not drawn) [Compound I-1618], the IC50 is no more than 100 nM.

As for `O=C(Nc1cc(N2CCn3cncc3C2)cc2c1C(c1cc(F)ccc1Cl)NC2=O)c1cc(F)cc(C(F)(F)F)c1` (stereo not drawn) [Compound I-1237], the IC50 is no more than 100 nM.

Molecule `NCc1cc(NC(=O)c2cc(F)cc(C(F)(F)F)c2)c2c(c1)C(=O)NC2c1cc(F)ccc1Cl` (stereo not drawn) [Compound I-126] had a concentration for half-maximal inhibition (IC50) of no more than 100 nM.

The molecule `O=C1NC(c2cc(F)ccc2Cl)c2c(NC(=O)[C@H]3CCC[C@@H](C(F)(F)F)C3)cccc21` (stereo partly drawn) [Compound I-2079] yielded an IC50 of 500 to 1000 nM.

`O=C1N[C@H](c2cc(F)ccc2Cl)c2c(N[C@H]3CCCNC3)cc(-c3ccc4ncnn4c3)cc21` (racemic) [Compound I-2023] came in with an IC50 of 10000 to 100000 nM.

In turn, `O=C(Nc1cccc2c1C(C1CCC1)NC2=O)c1cc(F)cc(C(F)(F)F)c1` (stereo not drawn) [Compound I-1731] registered an IC50 of 10000 to 100000 nM.

As to `Cc1ccccc1C1NC(=O)c2c(CO)ccc(NC(=O)c3csc4ccccc34)c21` (stereo not drawn) [Compound I-224], the IC50 was no more than 100 nM.

With `Cc1ccccc1[C@H]1NC(=O)c2nccc(NC(=O)N3CCc4ccccc43)c21` [Compound I-228], the IC50 is 10000 to 100000 nM.

Molecule `O=C1NC(c2cc(F)ccc2Cl)c2c(NC(=O)N3CCc4cc(C(F)(F)F)ccc43)cccc21` (stereo not drawn) [Compound I-2436] registered an IC50 of 10000 to 100000 nM.

Regarding `O=C(Nc1cc(-c2ccn3cnnc3c2)cc2c1C(c1cc(F)ccc1Cl)NC2=O)c1cc(F)cc(C(F)(F)F)c1` (stereo not drawn) [Compound I-1501], the 50% inhibitory concentration (IC50) was no more than 100 nM.

Turning to `O=C(Nc1cc(-c2ccncc2F)cc2c1[C@H](c1cc(F)ccc1Cl)NC2=O)c1cc(F)cc(C(F)(F)F)c1` (stereo in doubt) [Compound I-987], the IC50 was in the range of 1000 to 10000 nM.
